According to patent publication US20260315492A1, “5,6-FUSED BICYCLIC AMIDES AND COMPOSITIONS FOR USE AS 15-PROSTAGLANDIN DEHYDROGENASE MODULATORS” (AMGEN INC., priority 2023, published 2026):

target: T1, human recombinant 15-PGDH (Homo sapiens, UniProt P15428); test: Inhibition of recombinant 15-PGDH enzymatic activity (NADH quantification after addition of PGE2 and NAD+); assay type: biochemical; conditions: recombinant 15-PGDH; 15 min pre-incubation, 60-minute reaction, room temperature, pH 7.5; PGE2 and NAD+; read-out: PGDH-Lumi IC50
T1 sequence (P15428 1-266): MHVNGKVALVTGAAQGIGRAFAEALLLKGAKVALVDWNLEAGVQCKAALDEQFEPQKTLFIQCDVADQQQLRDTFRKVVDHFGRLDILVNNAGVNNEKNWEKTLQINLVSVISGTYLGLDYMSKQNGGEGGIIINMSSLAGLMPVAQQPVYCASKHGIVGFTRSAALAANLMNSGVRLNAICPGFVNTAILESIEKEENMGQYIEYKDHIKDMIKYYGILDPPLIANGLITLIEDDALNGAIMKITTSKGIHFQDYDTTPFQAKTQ
Summary of the method: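 Human recombinant 15-PGDH in 50 mM Tris pH 7.5, 0.01% Tween-20, 100 μM DTT, pre-incubated 15 min at room temperature with 22-point 2-fold compound dilutions. Reaction started with PGE2 and β-NAD+, run 60 min at room temperature, quenched. NADH signal read as activity; IC50 from concentration-response.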

Row | IC50 [nM] | Compound
1 | 16 | Cn1nccc1-c1nc(-c2cnc(=O)[nH]c2)nc2sc(C(=O)N3CCC(F)(F)CC3)cc12 [Compound C38, 5-(6-((4,4-difluoro-1-piperidinyl)carbonyl)-4-(1-methyl-1H-pyrazol-5-yl)thieno[2,3-d]pyrimidin-2-yl)-2(1H)-pyrimidinone]
2 | 1.38 | Cn1cc2cc(-c3cnc4cc(C(=O)N5CCC(F)(F)CC5)sc4n3)cnc2n1 [Compound C39]
3 | 0.726 | Cn1cc2cc(-c3cnc4sc(C(=O)N5CCC(F)(F)CC5)cc4n3)cnc2n1 [Compound C40, (4,4-difluoro-1-piperidinyl)(2-(2-methyl-2H-pyrazolo[3,4-b]pyridin-5-yl)thieno[2,3-b]pyrazin-6-yl)methanone]
4 | 0.429 | Cn1cc2cc(-c3ccc4sc(C(=O)N5CCC(F)(F)CC5)cc4n3)cnc2n1 [Compound C41, (4,4-difluoro-1-piperidinyl)(5-(2-methyl-2H-pyrazolo[3,4-b]pyridin-5-yl)thieno[3,2-b]pyridin-2-yl)methanone]
5 | 0.394 | Cn1cc2cc(-c3ccc4sc(C(=O)N5CCCCC5)cc4n3)cnc2n1 [Compound C42, (5-(2-methyl-2H-pyrazolo[3,4-b]pyridin-5-yl)thieno[3,2-b]pyridin-2-yl)(1-piperidinyl)methanone]
6 | 0.375 | Cn1cc2cc(-c3ccc4sc(C(=O)N5CCCC(F)(F)C5)cc4n3)cnc2n1 [Compound C43, (3,3-difluoro-1-piperidinyl)(5-(2-methyl-2H-pyrazolo[3,4-b]pyridin-5-yl)thieno[3,2-b]pyridin-2-yl)methanone]
7 | 4.51 | Cn1cc2cc(-c3ccc4sc(C(=O)N5CCOCC5)cc4n3)cnc2n1 [Compound C44, (5-(2-methyl-2H-pyrazolo[3,4-b]pyridin-5-yl)thieno[3,2-b]pyridin-2-yl)(4-morpholinyl)methanone]
8 | 0.679 | Cn1cc2cc(-c3ccc4sc(C(=O)N5CCCCC5)c(N)c4n3)cnc2n1 [Compound C45, (3-amino-5-(2-methyl-2H-pyrazolo[3,4-b]pyridin-5-yl)thieno[3,2-b]pyridin-2-yl)(1-piperidinyl)methanone]
9 | 20.1 | Cn1cc2cc(-c3ccc4sc(C(=O)N5CCOCC5)c(N)c4n3)cnc2n1 [Compound C46, (3-amino-5-(2-methyl-2H-pyrazolo[3,4-b]pyridin-5-yl)thieno[3,2-b]pyridin-2-yl)(4-morpholinyl)methanone]
10 | 1.63 | Cn1cc2cc(-c3ccc4sc(C(=O)N5CCCC(F)(F)C5)c(N)c4n3)cnc2n1 [Compound C47, (3-amino-5-(2-methyl-2H-pyrazolo[3,4-b]pyridin-5-yl)thieno[3,2-b]pyridin-2-yl)(3,3-difluoro-1-piperidinyl)methanone]
11 | 3.53 | Cn1cc2cc(-c3ccc4sc(C(=O)N5CCC(F)(F)CC5)c(N)c4n3)cnc2n1 [Compound C48, (3-amino-5-(2-methyl-2H-pyrazolo[3,4-b]pyridin-5-yl)thieno[3,2-b]pyridin-2-yl)(4,4-difluoro-1-piperidinyl)methanone]
12 | 1.67 | Cn1cc2cc(-c3nc(C4CC4)c4sc(C(=O)N5CCOCC5)cc4n3)cnc2n1 [Compound C49, (4-cyclopropyl-2-(2-methyl-2H-pyrazolo[3,4-b]pyridin-5-yl)thieno[3,2-d]pyrimidin-6-yl)(4-morpholinyl)methanone]
13 | 14400 | O=C(c1nc2ccc(N3CCOCC3)nc2s1)N1CCOCC1 [Compound C50, 4-morpholinyl(5-(4-morpholinyl)[1,3]thiazolo[5,4-b]pyridin-2-yl)methanone]
14 | 17.9 | Cn1cc2cc(-c3ccc4nc(C(=O)N5CCOCC5)sc4n3)cnc2n1 [Compound C51, (5-(2-methyl-2H-pyrazolo[3,4-b]pyridin-5-yl)[1,3]thiazolo[5,4-b]pyridin-2-yl)(4-morpholinyl)methanone]
15 | 17 | C[C@@H]1COCCN1C(=O)c1nc2ccc(-c3cnc4nn(C)cc4c3)nc2s1 [Compound C52R, ((3R)-3-methyl-4-morpholinyl)(5-(2-methyl-2H-pyrazolo[3,4-b]pyridin-5-yl)[1,3]thiazolo[5,4-b]pyridin-2-yl)methanone]
16 | 25.7 | C[C@H]1COCCN1C(=O)c1nc2ccc(-c3cnc4nn(C)cc4c3)nc2s1 [Compound C52S, ((3S)-3-methyl-4-morpholinyl)(5-(2-methyl-2H-pyrazolo[3,4-b]pyridin-5-yl)[1,3]thiazolo[5,4-b]pyridin-2-yl)methanone]
